Experimental findings from ChEMBL document CHEMBL1133232, “The design and synthesis of thrombin inhibitors: analogues of MD805 containing non-polar surrogates for arginine at the P1 position” (Bioorg Med Chem Lett, 2000) are described below.

In one assay the target is Prothrombin (Homo sapiens, UniProt P00734). As to the kind of experiment: Compound was evaluated for its inhibitory activity against Thrombin.
For another assay, the target named is Plasminogen (Homo sapiens, UniProt P00747). As to the kind of experiment: Compound was evaluated for its inhibitory activity against plasmin.
For the next assay, the target named is Serine protease 1 (Homo sapiens, UniProt P07477). As to the kind of experiment: Compound was evaluated for its inhibitory activity against Trypsin.
For the next assay, the target named is Coagulation factor X (Homo sapiens, UniProt P00742). As to the kind of experiment: Compound was evaluated for its inhibitory activity against Coagulation factor X.
The next assay concerns the target Kallikrein-1 (Homo sapiens, UniProt P06870). Nature of the assay: Compound was evaluated for its inhibitory activity against kallikrein.

Sequence of Serine protease 1 (P07477 whole entry): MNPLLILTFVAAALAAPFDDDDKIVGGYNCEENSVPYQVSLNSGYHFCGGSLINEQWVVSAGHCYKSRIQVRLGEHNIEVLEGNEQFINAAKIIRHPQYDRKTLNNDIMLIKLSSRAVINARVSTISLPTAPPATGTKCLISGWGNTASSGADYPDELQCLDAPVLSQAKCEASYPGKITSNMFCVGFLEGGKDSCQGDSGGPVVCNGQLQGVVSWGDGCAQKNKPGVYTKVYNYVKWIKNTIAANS
Sequence of Kallikrein-1 (P06870 whole entry): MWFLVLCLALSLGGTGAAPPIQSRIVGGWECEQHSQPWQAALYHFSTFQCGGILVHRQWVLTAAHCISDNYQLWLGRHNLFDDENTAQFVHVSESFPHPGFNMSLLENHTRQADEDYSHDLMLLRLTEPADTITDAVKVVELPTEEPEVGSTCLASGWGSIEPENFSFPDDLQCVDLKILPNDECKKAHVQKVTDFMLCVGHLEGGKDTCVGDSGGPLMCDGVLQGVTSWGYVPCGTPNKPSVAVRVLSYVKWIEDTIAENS
Sequence of Coagulation factor X (P00742 41-179 limits assumed): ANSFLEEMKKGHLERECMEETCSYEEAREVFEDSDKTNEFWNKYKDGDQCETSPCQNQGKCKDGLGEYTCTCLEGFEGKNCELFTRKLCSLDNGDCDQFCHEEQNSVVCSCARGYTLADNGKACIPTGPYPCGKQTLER
Sequence of Coagulation factor X (P00742 235-488 limits assumed): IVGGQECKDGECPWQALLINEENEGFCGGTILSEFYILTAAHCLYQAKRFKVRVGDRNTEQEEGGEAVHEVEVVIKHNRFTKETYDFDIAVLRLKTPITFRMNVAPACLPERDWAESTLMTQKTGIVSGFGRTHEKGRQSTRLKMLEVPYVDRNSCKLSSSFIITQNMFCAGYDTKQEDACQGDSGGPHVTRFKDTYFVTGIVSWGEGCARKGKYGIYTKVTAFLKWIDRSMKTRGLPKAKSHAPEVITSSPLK
Sequence of Plasminogen (P00747 97-580 limits assumed): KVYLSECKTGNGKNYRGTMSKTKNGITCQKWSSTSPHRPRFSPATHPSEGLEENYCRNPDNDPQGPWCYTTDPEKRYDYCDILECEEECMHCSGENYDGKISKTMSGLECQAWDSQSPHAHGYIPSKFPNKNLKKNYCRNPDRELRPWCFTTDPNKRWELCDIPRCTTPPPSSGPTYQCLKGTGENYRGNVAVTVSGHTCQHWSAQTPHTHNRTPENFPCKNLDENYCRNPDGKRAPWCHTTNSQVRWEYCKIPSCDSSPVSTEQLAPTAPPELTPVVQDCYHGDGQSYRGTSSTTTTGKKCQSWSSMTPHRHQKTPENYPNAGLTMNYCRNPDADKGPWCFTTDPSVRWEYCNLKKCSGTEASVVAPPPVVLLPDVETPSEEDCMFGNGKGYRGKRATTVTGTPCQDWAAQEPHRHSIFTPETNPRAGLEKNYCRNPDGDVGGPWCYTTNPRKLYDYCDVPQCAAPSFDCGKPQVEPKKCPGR
Sequence of Plasminogen (P00747 581-810 limits assumed): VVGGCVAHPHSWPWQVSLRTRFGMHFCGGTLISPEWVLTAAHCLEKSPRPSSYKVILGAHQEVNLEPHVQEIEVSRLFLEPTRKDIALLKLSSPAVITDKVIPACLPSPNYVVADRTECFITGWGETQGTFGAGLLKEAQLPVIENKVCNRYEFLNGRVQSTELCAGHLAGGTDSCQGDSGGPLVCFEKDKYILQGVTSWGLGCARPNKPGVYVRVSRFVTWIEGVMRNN

On to `CC1(C)CNc2c(cccc2S(=O)(=O)N[C@@H](Cc2cccnc2)C(=O)N2CCC(CCO)CC2)C1`, for which the affinity on Prothrombin, expressed as Ki, was 19600 nM.

In the case of `CC1(C)CNc2c(cccc2S(=O)(=O)N[C@@H](CSCCCN)C(=O)N2CCC(CCF)CC2)C1`, the Ki on Plasminogen was 4 µM; on Serine protease 1, 1.32 µM; at Coagulation factor X, 87 µM; on Prothrombin it was 126 nM; at Kallikrein-1, > 87 µM. For `CC1(C)CNc2c(cccc2S(=O)(=O)N[C@@H](CSCCCN)C(=O)N2CCC(CCO)CC2)C1`, in that order: 6.2 µM, 1.78 µM, 87 µM, 280 nM and > 87 µM. In turn, `CC1CNc2c(cccc2S(=O)(=O)N[C@@H](CCc2ccccc2)C(=O)N2CCC(CCO)CC2)C1` (some centres undefined) registered a Ki at Prothrombin of 47300 nM. At Prothrombin, `CC1(C)CNc2c(cccc2S(=O)(=O)NC(Cc2nc(-c3ccccc3)cs2)C(=O)N2CCC(CCO)CC2)C1` (centres undefined) displayed a Ki of 3280 nM. With `CC1CNc2c(cccc2S(=O)(=O)N[C@@H](Cc2nc3ccccc3o2)C(=O)N2CCC(CCO)CC2)C1` (some centres undefined), the affinity on Prothrombin, expressed as Ki, was 3100 nM.

On Prothrombin, `CC1(C)CNc2c(cccc2S(=O)(=O)NC(Cc2nc3ccncc3s2)C(=O)N2CCC(CCF)CC2)C1` (centres undefined) showed a Ki of 810 nM. On the same count and under the same terms, for `CC1(C)CNc2c(cccc2S(=O)(=O)NC(Cc2nc3cncnc3s2)C(=O)N2CCC(CCF)CC2)C1` (centres undefined) the value was 4560 nM. The same measure, in the same setting: for `Cc1csc(CC(NS(=O)(=O)c2cccc3c2NCC(C)(C)C3)C(=O)N2CCC(CCO)CC2)n1` (centres undefined) the value was 2190 nM; for `CC1(C)CNc2c(cccc2S(=O)(=O)NC(Cc2nc(CN)cs2)C(=O)N2CCC(CCO)CC2)C1` (centres undefined), 760 nM. In the case of `CCC1CCN(C(=O)C(Cc2nc3ccccc3s2)NS(=O)(=O)c2cccc3c2NCC(C)(C)C3)CC1` (centres undefined), the Ki at Plasminogen is 240 µM; on Serine protease 1 it was 260 µM; at Coagulation factor X, 92 µM; on Prothrombin it was 248 nM; at Kallikrein-1, 92 µM.

At Prothrombin, `CC1CNc2c(cccc2S(=O)(=O)N[C@@H](Cc2c[nH]c3ccccc23)C(=O)N2CCC(CCO)CC2)C1` (some centres undefined) came in with an inhibition constant (Ki) of 1570 nM. Same read-out and setting: for `CC(=O)OCCC1CCN(C(=O)C(Cc2nc3ccccc3[nH]2)NS(=O)(=O)c2cccc3c2NCC(C)(C)C3)CC1` (centres undefined) the value was 452 nM; for `CC1(C)CNc2c(cccc2S(=O)(=O)NC(Cc2nc3ccccc3s2)C(=O)N2CCC(CCO)CC2)C1` (centres undefined), 79.8 nM.

In the case of `CC1(C)CNc2c(cccc2S(=O)(=O)NC(Cc2nc3ccccc3s2)C(=O)N2CCC(CCF)CC2)C1` (stereo in doubt), at Prothrombin, the affinity, expressed as Ki, was 28 nM.

On Prothrombin, `CC1CNc2c(cccc2S(=O)(=O)N[C@@H](Cc2nc3ccccc3s2)C(=O)N2CCC(CCO)CC2)C1` (stereo in doubt; 23) showed a Ki of 118 nM.

`CC1(C)CNc2c(cccc2S(=O)(=O)NC(Cc2nc3ccccc3s2)C(=O)N2CCC(CCF)CC2)C1` (stereo in doubt; 26) came in with a Ki at Prothrombin of 26 nM. Take `CC1CNc2c(cccc2S(=O)(=O)N[C@@H](Cc2nc3ccccc3s2)C(=O)N2CCC(CCO)CC2)C1` (stereo in doubt; 33): the Ki is 109 µM on Plasminogen; 126 µM at Serine protease 1; 45 µM on Coagulation factor X; 118 nM on Prothrombin; > 45 µM at Kallikrein-1.
